Data from patent US7767398B2, “Means and methods for diagnosing and treating affective disorders” (Affectis Pharmaceuticals AG, priority 2003, dated 2010).

Key:
P2X7R [1] = target: T1, P2X7R (Mus musculus, UniProt Q9Z1M0); assay: Calcium influx into HT-22 cells (Oregon green AM ester); type: cell-based; set-up: dose or concentration left out as unconfirmed; settings: HT-22 cells pre-treated with oATP for 1 hour before BzATP
T1 construct: an immortalised mouse hippocampal cell line expressing the endogenous P2X7 gene; endogenous in cells; host or cells: HT-22 mouse hippocampal cell line
T1 sequence (Q9Z1M0 1-595): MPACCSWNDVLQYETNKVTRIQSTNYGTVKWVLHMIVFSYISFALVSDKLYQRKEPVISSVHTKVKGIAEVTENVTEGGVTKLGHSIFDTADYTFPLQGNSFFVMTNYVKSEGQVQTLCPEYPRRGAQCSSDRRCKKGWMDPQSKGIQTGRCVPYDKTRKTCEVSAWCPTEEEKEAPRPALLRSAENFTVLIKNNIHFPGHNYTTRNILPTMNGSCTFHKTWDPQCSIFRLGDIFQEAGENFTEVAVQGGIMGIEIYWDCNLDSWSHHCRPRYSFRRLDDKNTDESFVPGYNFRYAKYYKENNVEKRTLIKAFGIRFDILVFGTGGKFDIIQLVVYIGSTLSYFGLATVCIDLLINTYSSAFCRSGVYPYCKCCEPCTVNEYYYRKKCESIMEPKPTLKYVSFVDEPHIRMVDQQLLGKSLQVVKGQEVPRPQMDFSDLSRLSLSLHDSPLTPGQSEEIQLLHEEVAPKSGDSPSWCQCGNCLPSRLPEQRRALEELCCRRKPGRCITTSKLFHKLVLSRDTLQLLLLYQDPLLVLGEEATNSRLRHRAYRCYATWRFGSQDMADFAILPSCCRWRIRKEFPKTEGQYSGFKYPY
Description: Since P2X7R is an ATP-gated ion channel which allows the entry of calcium and sodium ions into cells, a method for identifying P2X7R agonist was established by monitoring calcium influx into HT-22 cells. […] Calcium movement into the cells was visualised under a fluorescent microscope with a fluorescein filter (wavelength 492/517 nm). Oregon green AM ester is a fluorescent dye that binds to intracellular calcium. […] Alternatively, Oregon green AM ester can be replaced by Fluo-3, fluo-4, fluo-5F, fluo-5N, fluo4FF, Fluo4 dextran, Fluo-3 AM, Fluo-4 AM, Fluo-5F AM, Fluo-5N AM and Fluo4FF AM (Molecular Probes). Calcium influx in HT-22 cells can also be measured in 96-well and 384-well microplate using the Calcium Plus Assay Kit (Molecular Device) or FLIPR® Calcium Assay Kit for Fluorometric Imaging Plate Reader Systems (Molecular Device). HT-22 cells can be replaced by any cells expressing P2X7R, including cells that have been genetically modified by introducing an exogenous P2X7 gene.
Activation of P2X7R by the agonist was inhibited by oATP (FIG. 18) as illustrated by the absence of green fluorescence in the cells.

P2X7R [2] = target: T1, P2X7R; assay: Entry of ethidium bromide into HT-22 cells; type: cell-based; settings: pre-incubation 60 minutes with 100 μM o-ATP before agonist and ethidium bromide
Description: Yet another method of measuring P2X7R activity involves the entry of ethidium bromide into P2X7R expressing cells. Activation of P2X7R by an agonist allows the entry of ethidium bromide which binds nuclear DNA and emits a fluorescence signal. Alternatively, the propidium dye YOPRO-1 can be substituted for ethidium bromide. An increase in fluorescence can be used as a measure of P2X7 receptor activation. Therefore, the assay can be used to test and quantify the effect of an agent or compound with agonist properties on P2X7R. In the present example, 10^3 HT-22 cells were seeded per well in a 96-well flat bottom microtitre plates and incubated at 37° C./5% CO2 in DMEM medium containing 10% FCS until the cells attached to the culture surface. […] The number of fluorescent cells which have integrated the ethidium bromide to the DNA can then be counted using a fluorescent microscope (Zeiss, Germany). […] Alternatively, ethidium bromide fluorescence can be measured using a Perkin-Elmer fluorescent plate reader (excitation 520 nm, emission 595 nm, slit widths: Ex 15 nm, Em 20 nm). From the readings obtained, a pIC50 figure can be calculated for each candidate agent or compound. […] The specificity of an agonist for P2X7R can be evaluated by pre-incubation of the cells for 60 minutes with 100 μM o-ATP before adding the agonist and ethidium bromide dye.

mice = assay: Porsolt's forced swim test; type: in vivo, mouse; settings: 100 nM KN-62 or 10 μM oATP, 1 μl each side, dentate gyrus; 24 hours after injection; DBA/201a mice
Description: Further validation of role of P2X7R in affective disorders was performed by examining its expression pattern in response to stress and treatment with antidepressant drugs. […] In parallel, a control group of mice was given vehicle solution (i.e. without paroxetine) using the same treatment regiment while a second control group of mice was left undisturbed and stress-free (i.e. untreated) during the same period of the experiments. At the end of the long-term treatment, part of the mice of each experimental group were tested in the dark/light box (test of anxiety behaviour) and in the Porsolt's forced swim test (test of depressive-like behaviour) to confirm the effectiveness of the treatment (FIG. 5). […] The other part of the experimental groups (i.e. mice without test experience) were decapitated, brains rapidly removed and frozen at −80° C. until usage.
The effects of P2X7R inhibition on depressive-like behaviour was assessed 24 hours and 48 hours after infusion of siRNA, control or vehicle according to the standard test paradigm, the Porsolt's forced swim test (Porsolt et al., Arch. Int. Pharmacodym. 229 (1977), 327-336; Porsolt, Rev. Neurosci. 11 (2000), 53-58). […] Compared to vehicle application, no influence of control double stranded RNA (5′-[…]-3′) on floating behaviour (passive stress coping) was detected. […] This interpretation becomes moreover evident when the effects of antidepressants on passive stress coping behaviour in the forced swim test are visualized (FIG. 5). Passive stress coping behaviour increased after acute intrahippocampal injection (bilateral, dentate gyrus) of siRNA targeting P2X7R. The Porsolt's forced swim test is a standard test used to assess the effectiveness of antidepressants and it has been proven by many studies that the test is selectively sensitive for these effects, given that the right animal model is used. The paradigm has been widely used to test pharmaceutical compounds and to validate animal models of depression, which show an increase in passive behaviour as do the mice where P2X7R has been inhibited (siRNA).
The forced swim test is a standard test that measures primary stress-induced reductions in avoidance or escape, termed behavioural despair. The test is used to determine the effectiveness of antidepressants, test new pharmaceutical compounds and validate animal models of depression (Porsolt et al., Arch. Int. Pharmacodym. 229 (1977), 327-336; Porsolt, Rev. Neurosci. 11 (2000), 53-58; Rénéric et al., Behav. Brain Res. 136 (2002), 521-532; Page et al., Psychopharmacology 165 (2003), 194-201; Kelliher et al., Psychoneuroendocrinology 28 (2003), 332-347). The test consists of placing a mouse for a period of 5 minutes into a glass cylinder containing water. Under such circumstances, the mouse cannot touch the bottom of the cylinder and is thus forced to swim. Time, latency and frequency of struggling versus floating are scored as behavioural parameters. […] Increased struggling (i.e. active attempts to escape) indicates active coping behaviour that can be interpreted as an improvement of depression-like symptoms. For example, treatment with serotonergic antidepressants reduce the total time spent floating (Borsini, Neurosci. Biobehav. Rev. 19 (1995), 377-395; Redrobe and Bourin, Psychopharmacology 138 (1998), 198-206, and in parallel increases the time of active behaviour (i.e. swimming or struggling; Lucki et al., Psychopharmacology 155 (2001), 315-322).
The behaviour of individual mice was assessed using the Porsolt's forced swim test 24 hours after injection of vehicle solution, KN-62, or oATP. A pre-exposure of 5 minutes to the test was performed 15-17 minutes after administration of vehicle, KN-62, or oATP. A description of the Porsolt's forced swim test is given in example 9. […]

activation of P2X7R by the agonist (BzATP) after antagonist pre-treatment, calcium influx (P2X7R [1]): inhibited
Compound: Nc1ncnc2c1ncn2[C@@H](C=O)O[C@@H](C=O)COP(=O)(O)OP(=O)(O)OP(=O)(O)O [oATP]
number of fluorescent cells after antagonist pre-incubation (ethidium bromide entry) (P2X7R [2]): reduction in the number of fluorescent cells
active escape attempts (time, frequency, latency of struggling) in the forced swim test (mice): no changes
passive behaviour (time, frequency, latency of floating) in the forced swim test (mice): no changes
